Measured values published in patent US11485735B2, “Selective CDK4/6 inhibitor and preparation thereof” (Wuxi Shuangliang Biotechnology Co., Ltd., priority 2019, dated 2022).
Counter-ions that a name gives are not always drawn.

Columns and labels:
CDK4/CyclinD3 = biological target: T1, CDK4/CyclinD3 (Homo sapiens, UniProt P11802); assay: In-vitro kinase inhibitory activity, CDK4/CyclinD3 (Caliper EZ Reader II mobility shift); type: biochemical; conditions: CDK4/CyclinD3 20 nM, ATP 2 mM, Peptide 1 μM, 27° C., 180 min; read-out: IC50 (half maximal inhibitory concentration, nM) CDK4
T1 construct: purchased Wuxi Biortus Biosciences Co. Ltd
T1 sequence (P11802 whole entry, species assumed): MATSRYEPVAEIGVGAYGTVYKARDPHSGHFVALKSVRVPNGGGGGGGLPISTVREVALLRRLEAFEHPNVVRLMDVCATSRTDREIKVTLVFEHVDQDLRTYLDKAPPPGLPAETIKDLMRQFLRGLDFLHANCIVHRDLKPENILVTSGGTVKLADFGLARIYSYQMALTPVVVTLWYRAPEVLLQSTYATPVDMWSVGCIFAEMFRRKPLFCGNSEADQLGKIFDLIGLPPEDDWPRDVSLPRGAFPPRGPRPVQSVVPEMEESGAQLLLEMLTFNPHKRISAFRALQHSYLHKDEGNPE
T1 sequence (P30281 whole entry partner, species assumed): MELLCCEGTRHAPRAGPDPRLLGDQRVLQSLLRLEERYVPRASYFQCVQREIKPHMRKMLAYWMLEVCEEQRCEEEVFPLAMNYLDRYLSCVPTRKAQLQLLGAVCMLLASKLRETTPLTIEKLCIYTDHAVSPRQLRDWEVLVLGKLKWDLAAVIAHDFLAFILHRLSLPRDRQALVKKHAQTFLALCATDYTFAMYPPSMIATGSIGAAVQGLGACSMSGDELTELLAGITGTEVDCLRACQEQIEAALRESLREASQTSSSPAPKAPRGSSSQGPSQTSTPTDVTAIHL
Procedure: The final volume for assay was 16 μL, and the reaction temperature was 27° C. CDK4/CyclinD3 was produced by Wuxi Biortus Biosciences Co. Ltd. The concentration of the kinase was determined by the results of the optimization experiment. The kinase was diluted with an assay buffer (50 mM Tris HCl pH 8.0, 0.01% Tween 20, 50 μg/mL BSA, and 5 mM MgCl2) to obtain a corresponding kinase solution (2.4× concentration). The compound was dissolved in dimethyl sulfoxide (DMSO) to reach a concentration of 10 mM. […] 2 μL of the test compound solution was mixed with 5 μL of the kinase solution, and the mixture was incubated for 10 min. 5 μL of the mixed solution of the polypeptide substrate and ATP was then added. The mixture was incubated at 27° C. for 180 min, and then the reaction was terminated by adding 4 μL of EDTA with a concentration of 120 mM to each sample. […] Each assay was conducted in at least two replicates.
(§1) The final concentrations of the reagents in the assay were as follows. […] The reaction mixture was analyzed on a Caliper EZ Reader II by electrophoretic separation of the fluorescent substrate and the phosphorylated product. Data were calculated by using GraphPad Prism version 6.0 and IC50 values were obtained by adjusting the non-linear regression models of the dose response curves.

CDK6/CyclinD3 = biological target: T2, CDK6/CyclinD3 (Homo sapiens, UniProt Q00534); assay: In-vitro kinase inhibitory activity, CDK6/CyclinD3 (Caliper EZ Reader II mobility shift); type: biochemical; conditions: CDK6/CyclinD3 20 nM, ATP 2 mM, Peptide 1 μM, 27° C., 120 min; read-out: IC50 (half maximal inhibitory concentration, nM) CDK6
T2 construct: purchased Wuxi Biortus Biosciences Co. Ltd
T2 sequence (Q00534 whole entry, species assumed): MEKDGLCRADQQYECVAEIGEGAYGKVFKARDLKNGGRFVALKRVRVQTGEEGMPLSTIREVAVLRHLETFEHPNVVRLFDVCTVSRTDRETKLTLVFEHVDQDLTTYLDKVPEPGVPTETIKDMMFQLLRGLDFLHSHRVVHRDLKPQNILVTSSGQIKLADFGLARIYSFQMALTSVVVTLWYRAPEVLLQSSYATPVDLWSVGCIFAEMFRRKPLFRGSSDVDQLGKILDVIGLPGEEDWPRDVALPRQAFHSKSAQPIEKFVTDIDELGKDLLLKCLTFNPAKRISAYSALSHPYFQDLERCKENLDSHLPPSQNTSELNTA
T2 sequence (P30281 whole entry partner, species assumed): as the sequence (P30281 whole entry partner, species assumed) above
Procedure: The final volume for assay was 16 μL, and the reaction temperature was 27° C. […] The compound was dissolved in dimethyl sulfoxide (DMSO) to reach a concentration of 10 mM. […] 2 μL of the test compound solution was mixed with 5 μL of the kinase solution, and the mixture was incubated for 10 min. 5 μL of the mixed solution of the polypeptide substrate and ATP was then added. The mixture was incubated at 27° C. for 120 min, and then the reaction was terminated by adding 4 μL of EDTA with a concentration of 120 mM to each sample. […] Each assay was conducted in at least two replicates.
as §1

CDK2 = CDK2 (Homo sapiens, UniProt P24941); assay: In-vitro kinase inhibitory activity, CDK2 (selectivity); type: biochemical; conditions: read-out: IC50 (half maximal inhibitory concentration, nM) CDK2
CDK9 = CDK9 (Homo sapiens, UniProt P50750); assay: In-vitro kinase inhibitory activity, CDK9 (selectivity); type: biochemical; conditions: read-out: IC50 (half maximal inhibitory concentration, nM) CDK9
CDK9, sequence (P50750 whole entry, species assumed): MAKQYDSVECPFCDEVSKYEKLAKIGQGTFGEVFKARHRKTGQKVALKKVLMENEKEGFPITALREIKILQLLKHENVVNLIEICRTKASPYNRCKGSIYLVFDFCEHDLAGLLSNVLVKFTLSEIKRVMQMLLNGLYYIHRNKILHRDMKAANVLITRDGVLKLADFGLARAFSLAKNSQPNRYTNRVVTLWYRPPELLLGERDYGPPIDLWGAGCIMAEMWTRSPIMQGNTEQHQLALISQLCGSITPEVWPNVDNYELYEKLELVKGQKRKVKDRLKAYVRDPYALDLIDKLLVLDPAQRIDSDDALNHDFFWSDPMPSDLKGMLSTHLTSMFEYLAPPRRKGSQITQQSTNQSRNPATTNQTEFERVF
CDK9, sequence (O60563 whole entry partner, species assumed): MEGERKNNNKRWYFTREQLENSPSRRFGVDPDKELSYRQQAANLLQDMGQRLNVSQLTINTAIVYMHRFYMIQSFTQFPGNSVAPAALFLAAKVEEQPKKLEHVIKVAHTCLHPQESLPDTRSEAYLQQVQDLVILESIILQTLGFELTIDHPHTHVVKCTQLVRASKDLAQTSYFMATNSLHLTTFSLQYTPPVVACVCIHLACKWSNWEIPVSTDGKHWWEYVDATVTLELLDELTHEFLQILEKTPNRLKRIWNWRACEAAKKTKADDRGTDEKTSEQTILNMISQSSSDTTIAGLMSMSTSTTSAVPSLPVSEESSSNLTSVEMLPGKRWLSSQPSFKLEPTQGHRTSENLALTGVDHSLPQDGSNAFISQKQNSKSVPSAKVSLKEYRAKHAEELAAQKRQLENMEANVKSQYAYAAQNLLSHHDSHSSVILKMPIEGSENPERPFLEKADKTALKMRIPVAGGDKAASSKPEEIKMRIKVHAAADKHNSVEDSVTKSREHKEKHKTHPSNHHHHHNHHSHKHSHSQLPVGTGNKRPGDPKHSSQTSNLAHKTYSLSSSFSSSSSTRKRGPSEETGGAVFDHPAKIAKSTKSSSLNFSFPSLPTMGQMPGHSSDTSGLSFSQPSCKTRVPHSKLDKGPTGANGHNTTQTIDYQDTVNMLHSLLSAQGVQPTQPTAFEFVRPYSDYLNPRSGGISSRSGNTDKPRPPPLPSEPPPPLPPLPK

[1] = system: human colon cancer COLO205 cells; assay: Growth inhibition of tumor cells cultured in vitro, CellTiter-Glo, COLO205; type: cell-based; conditions: COLO205, 72 h, CellTiter-Glo
Text: (§2) Test drugs: Compounds of the present disclosure. Tumor cell strains: human colon cancer COLO205 cells and human breast cancer MCF-7 cells.
(§3) The growth inhibitory effects on human tumor cells COLO205 and MCF-7 cultured in vitro were observed by using a CellTiter-Glo Luminescent Cell Viability Assay Kit (Promega, Cat. No. G7572). Human tumor cells COLO205 and MCF-7 were both purchased from the American Type Culture Collection.
(§4) CellTiter-Glo Luminescent Cell Viability Assay: The previous cell culture medium was discarded, and the tumor cells were rinsed twice with PBS. An appropriate amount of trypsin (VWR, Cat. No. 0458-25G) was added to digest the tumor cells until most of the cells turned round and were detached from the wall. The trypsin digestion was terminated by adding an RPMI-1640 medium (COLO205; Gibco, Cat. No. A10491-01) containing 10% fetal bovine serum (Hyclone, Cat. No. SV30160.03) and MEM medium (MCF-7; Gibco, Cat. No. 10370-021) containing 10% fetal bovine serum and 0.01 mg/mL insulin, and the cells were gently pipetted with a pipette to completely suspend the tumor cells. After cell counting, a tumor cell suspension was prepared using a complete culture medium and the final concentration was 6.7×10^4 cells/mL. 90 μL of the tumor cell suspension was seeded in each well of a 96-well culture plate (6000 cells/well). The plate was then placed in an incubator with 5% CO2 at 37° C. and incubated for 24 h. A test drug was added by using an Agilent Bravo Automated Liquid Handling Platform, and 10 μL of the sample was added in each well. The assay was conducted in triplicate for each group. A compound of the present disclosure was dissolved in DMSO (BioRoYee, Cat. No. AF0231), and then the resulting solution was diluted to 10 μM/L, 3.33 μM/L, 1.11 μM/L, 0.37 μM/L, 0.123 μM/L, 0.041 μM/L, 0.0137 μM/L, 0.0046 μM/L, and 0.0015 μM/L with the culture medium. The concentration of DMSO was lower than 0.1%, and a culture medium containing 0.1% DMSO was added to the well which was set as a vehicle control group. The 96-well plate was placed in an incubator with 5% CO2 at 37° C. and incubated for 72 h. The 96-well plate to be tested was equilibrated at room temperature for 30 min, and 100 μL of Cell Titer-Glo reagent was added to each well. The contents of each well were mixed in an orbital shaker for 2 min to induce cell lysis, and the plate was incubated at room temperature for 10 min to achieve a constant value of fluorescent intensity. Finally, the chemiluminescence intensity was detected by TECAN M1000. Data were processed with Graphpad Prism 6.0 software. The growth curve of the cells was plotted. The cell growth inhibition rate of a drug was calculated, and the half maximal inhibitory concentration (IC50) of the drug was determined.

[2] = system: human breast cancer MCF-7 cells; assay: Growth inhibition of tumor cells cultured in vitro, CellTiter-Glo, MCF-7; type: cell-based; conditions: for IC50: MCF-7, 72 h, CellTiter-Glo
Text: as §2, §3, §4

| Structure (SMILES) | IC50 (CDK4/CyclinD3) [nM] | IC50 (CDK6/CyclinD3) [nM] | IC50 (CDK2) [nM] | IC50 (CDK9) [nM] | IC50 ([1]; Homo sapiens, COLO 205, 72 h) [nM] | IC50 [2] [nM] | IC50 [1] [nM] | IC50 ([2]; Homo sapiens, MCF7, 72 h) [nM] | IC50 ([1]; dihydrochloride) [nM] | IC50 ([2]; dihydrochloride) [nM] | inhibitory effect on human breast cancer MCF-7 cells (in words) ([2]; summary of the table) |
| --- | --- | --- | --- | --- | --- | --- | --- | --- | --- | --- | --- |
| CC(=O)c1c(C)c2cnc(Nc3ccc(N4CCN(CCN5CCN(c6c(F)cc7c(c6F)CN(C6CCC(=O)NC6=O)C7=O)CC5)CC4)cn3)nc2n(C2CCCC2)c1=O (stereo not shown) [Compound 22, 3-(5-(4-(2-(4-(6-((6-acetyl-8-cyclopentyl-5-methyl-7-oxo-7,8-dihydropyrido[2,3-d]pyrimidin-2-yl)amino)pyridin-3-yl)piperazin-1-yl)ethyl)piperazin-1-yl)-4,6-difluoro-1-oxoisoindolin-2-yl) piperidine-2,6-dione] | 27.4 | 18.2 | > 10000 | 6220 | 87.1 | > 10000 | – | – | – | – | – |
| COc1c(N2CCN(CCN3CCN(c4ccc(Nc5ncc6c(C)c(C(C)=O)c(=O)n(C7CCCC7)c6n5)nc4)CC3)CC2)ccc2c1CN(C1CCC(=O)NC1=O)C2=O (stereo not shown) [Compound 18, 3-(5-(4-(2-(4-(6-((6-acetyl-8-cyclopentyl-5-methyl-7-oxo-7,8-dihydropyrido[2,3-d]pyrimidin-2-yl)amino)pyridin-3-yl)piperazin-1-yl)ethyl)piperazin-1-yl)-4-methoxy-1-oxoisoindolin-2-yl)piperidine-2,6-dione] | 99.5 | 37.8 | – | > 10000 | – | – | 133 | > 10000 | – | – | – |
| COc1c(N2CCN(CCN3CCN(c4ccc(Nc5ncc6c(C)c(C(C)=O)c(=O)n(C7CCCC7)c6n5)nc4)CC3)CC2)ccc2c1CN(C1CCC(=O)NC1=O)C2=O (stereo not shown) [Compound 19, 3-(5-(4-(2-(4-(6-((6-acetyl-8-cyclopentyl-5-methyl-7-oxo-7,8-dihydropyrido[2,3-d]pyrimidin-2-yl)amino)pyridin-3-yl)piperazin-1-yl)ethyl)piperazin-1-yl)-4-methoxy-1-oxoisoindolin-2-yl)piperidine-2,6-dione dihydrochloride] | 54.8 | 20.5 | – | 5610 | – | > 10000 | – | – | 43.2 | – | – |
| COc1cc(N2CCN(CCN3CCN(c4ccc(Nc5ncc6c(C)c(C(C)=O)c(=O)n(C7CCCC7)c6n5)nc4)CC3)CC2)cc2c1C(=O)N(C1CCC(=O)NC1=O)C2 (stereo not shown) [Compound 16, 3-(5-(4-(2-(4-(6-((6-acetyl-8-cyclopentyl-5-methyl-7-oxo-7,8-dihydropyrido[2,3-d]pyrimidin-2-yl)amino)pyridin-3-yl)piperazin-1-yl)ethyl)piperazin-1-yl)-7-methoxy-1-oxoisoindolin-2-yl)piperidine-2,6-dione] | 60.1 | 26.4 | – | > 10000 | 66.9 | – | – | > 10000 | – | – | – |
| CN(C)C(=O)c1cc2cnc(Nc3ccc(N4CCN(CCN5CCC(CN6CCN(c7ccc8c(c7)CN([C@H]7CCC(=O)NC7=O)C8=O)CC6)CC5)CC4)cn3)nc2n1C1CCCC1 [Compound 29, (S)-7-cyclopentyl-2-((5-(4-(2-(4-((4-(2-(2,6-dioxopiperidin-3-yl)-1-oxoisoindolin-5-yl)piperazin-1-yl)methyl)piperidin-1-yl)ethyl)piperazin-1-yl)pyridin-2-yl)amino)-N,N-dimethyl-7H-pyrrolo[2,3-d]pyrimidin-6-amide trihydrochloride] | 37.8 | 42.1 | – | 3650 | – | – | – | 106 | – | – | – |
| CC(=O)c1c(C)c2cnc(Nc3ccc(N4CCN(CCN5CCN(c6c(F)cc7c(c6F)CN(C6CCC(=O)NC6=O)C7=O)CC5)CC4)cn3)nc2n(C2CCCC2)c1=O.Cl.Cl (stereo not shown) [Compound 23, 3-(5-(4-(2-(4-(6-((6-acetyl-8-cyclopentyl-5-methyl-7-oxo-7,8-dihydropyrido[2,3-d]pyrimidin-2-yl)amino)pyridin-3-yl)piperazin-1-yl)ethyl)piperazin-1-yl)-4,6-difluoro-1-oxoisoindolin-2-yl) piperidine-2,6-dione dihydrochloride] | 48.8 | 22.1 | – | 4580 | – | – | – | – | – | 13.5 | relatively good inhibitory effects |

The next compounds have a lower IC50 (CDK4/CyclinD3) than those just listed; values first:

| IC50 (CDK4/CyclinD3) [nM] | IC50 (CDK6/CyclinD3) [nM] | IC50 (CDK2) [nM] | IC50 (CDK9) [nM] | IC50 ([1]; Homo sapiens, COLO 205, 72 h) [nM] | IC50 [2] [nM] | IC50 [1] [nM] | IC50 ([2]; Homo sapiens, MCF7, 72 h) [nM] | IC50 ([1]; dihydrochloride) [nM] | IC50 ([2]; dihydrochloride) [nM] | Structure (SMILES) | inhibitory effect on human breast cancer MCF-7 cells (in words) ([2]; summary of the table) |
| --- | --- | --- | --- | --- | --- | --- | --- | --- | --- | --- | --- |
| 17.6 | 9.84 | – | 1560 | 68.8 | – | – | 442 | – | – | CC(=O)c1c(C)c2cnc(Nc3ccc(N4CCN(CCN5CCC(CN6CCN(c7c(F)cc8c(c7F)CN(C7CCC(=O)NC7=O)C8=O)CC6)CC5)CC4)cn3)nc2n(C2CCCC2)c1=O (stereo not shown) [Compound 34, 3-(5-(4-((1-(2-(4-(6-((6-acetyl-8-cyclopentyl-5-methyl-7-oxo-7,8-dihydropyrido[2,3-d]pyrimidin-2-yl)amino)pyridin-3-yl)piperazin-1-yl)ethyl)piperidin-4-yl)methyl)piperazin-1-yl)-4,6-difluoro-1-oxoisoindolin-2-yl)piperidine-2,6-dione trihydrochloride] | – |
| 13 | 23.2 | 1030 | 688 | – | – | – | – | – | – | Cc1nc2c(F)cc(-c3nc(Nc4ccc(CN5CCN(CCN6CCN(c7ccc8c(c7)CN(C7CCC(=O)NC7=O)C8=O)CC6)CC5)cn4)ncc3F)cc2n1C(C)C (stereo not shown) [Compound 12, 3-(5-(4-(2-(4-((6-((5-fluoro-4-(4-fluoro-1-isopropyl-2-methyl-1H-benzo[d]imidazol-6-yl)pyrimidin-2-yl)amino)pyridin-3-yl)methyl)piperazin-1-yl)ethyl)piperazin-1-yl)-1-oxoisoindolin-2-yl) piperidine-2,6-dione trihydrochloride] | – |
| 11.5 | 3.21 | > 10000 | 4150 | – | – | – | – | – | – | CC(=O)c1c(C)c2cnc(Nc3ccc(N4CCN(CCN5CCC(CC6CCN(c7ccc8c(c7)CN(C7CCC(=O)NC7=O)C8=O)CC6)CC5)CC4)cn3)nc2n(C2CCCC2)c1=O (stereo not shown) [Compound 10, 3-(5-(4-((1-(2-(4-(6-((6-acetyl-8-cyclopentyl-5-methyl-7-oxo-7,8-dihydropyrido[2,3-d]pyrimidin-2-yl)amino)pyridin-3-yl)piperazin-1-yl)ethyl)piperidin-4-yl)methyl)piperidin-1-yl)-1-oxoisoindolin-2-yl)piperidine-2,6-dione] | – |
